# ChEMBL document CHEMBL1140627, “Adaptive neuro-fuzzy inference system (ANFIS): a new approach to predictive modeling in QSAR applications: a study of neuro-fuzzy modeling of PCP-based NMDA receptor antagonists” (Bioorg Med Chem, 2007)
# Biological target: Glutamate NMDA receptor
# Test: Displacement of [3H]TCP from NMDA receptor in rat brain membrane
# Assay type: cell membranes
row,Structure (SMILES),Ki [nM]
1,NC1(c2ccc(F)cc2)CCCCC1,5130
2,NC1(c2cccc(O)c2)CCCCC1,225
3,c1ccc(C2(N3CCCCC3)CCCCC2)cc1 [PHENCYCLIDINE],70
